Consider 16 compounds from patent publication EP0126043A1, “Carbohydrate derivatives and compositions thereof for therapeutic or diagnostic use” (priority 1983, dated 1984).

Values after ≈ are worked out from the molar mass of the structure shown.

For assay [1], the system named is S. pneumoniae. As to the kind of experiment: Inhibition of adherence of pneumococci to human pharyngeal epithelium cells (bacteria preincubated with free receptor). The assay is classed as cell-based. The conditions noted are these: for activity at 100 µg/mL / activity at 1000 µg/mL / activity at 5000 µg/mL / activity at 10000 µg/mL: read-out: Adherence % of control Average; for IC50: read-out: concentration for 50% inhibition of adherence; for inhibition of adherence (result in words): pretreatment of the pneumococci with the substance; for Inhibition of adherence % of control Average: Conc. 200 µg/ml, bacteria preincubated with the glycoconjugate before adding epithelium cells, adhesion in percent of saline control. As for the experimental part: (§1) Two strains of S. Pneumoniae, EF3114 and EF 10276 (both of the capsular type 6A isolated from the nasopharynx of patients having inflammation in the middle ear) were maintained in a lyophilized state. For adherence test the lyophiles were transferred to blood agar plates and cultivated over night, were then allowed to grow for18 hours in a synthetic medium (Ref. 1) supplemented with 2 g/l ascorbic acid and such as described in (Ref. 2). The bacteria were harvested by centrifugation and suspended in saline solution (Ref. 3).
Binding to humane nasopharyngeal epithelium cells was investigated in vitro as previously described (Ref. 3). Bacterial cells (10^9/ml) and pharyngeal epithelium cells from a healthy donor (10^4/ml) were mixed, centrifugated at 1500xg for 10 minutes and incubated at 37°C for 30 minutes. After washing twice in 2.5 ml salines for separating epithelium cells from non-adhering bacteria the number of bacteria adhering at 40 epithelium cells were counted and the average number per cell was determined.
For inhibition of adhesion the bacterium concentration giving an average adhesion value of 20-300 bacteria per cell was determined. This inoculate was then preincubated with dilutions of the solutions of potential receptor activity for 15 minutes at 37°C.
Epithelium cells were added and adhesion testing was carried out as described. The adhesion was given in percent of the saline as a control sample.

In assay [2] the test system is S. pneumoniae. The experiment in a line: Induction/increase of pneumococcal adherence by coating epithelium cells with glycoconjugate. The class given is cell-based. To be noted: for Increase of adherence % of control Average: Conc. 200 µg/ml, epithelium cells preincubated with glycoconjugate, washed and used for adherence testing; for effect of coating of pharyngeal epithelium cells on adherence (result in words): coating with 200 µg/ml. As for the experimental part: as §1
Binding to humane nasopharyngeal epithelium cells was investigated in vitro as previously described (Ref. 3). Bacterial cells (10^9/ml) and pharyngeal epithelium cells from a healthy male donor (10^4/ml) were mixed, centrifugated at 1500xg for 10 minutes and incubated at 37°C for 30 minutes. After washing twice in 2.5 ml salines for separating epithelium cells from non-adhering bacteria the number of bacteria adhering at 40 epithelium cells were counted and the average number per cell was determined.
Association of receptor active glycolipids with epithelium cells or erythrocytes can increase binding to epithelium cells already containing the receptor or induce binding of cells which have not previously contained receptor. Rabbit erythrocytes (100 ul of a 5 % suspension) were mixed with a neolactotetraosyl ceramide, sialylneolactotetra- osyleeramide or globotetraosylceramide (500 ul of . suspensions of 200 ug/ml) and incubated at 37° for 3 hours with rotation (Ref. 16). After elimination of unbound glycolipid by repeated washing the erythrocyte concentration was again adjusted to 5 % and used for haemagglutination. Parallel to the tests regarding inhibition of adherence the humane nasopharyngeal epithelium cells were pretreated with decreasing concentrations of glycolipid, incubated for 2 hours at 37°C, washed and used for testing of adherence.

Consider `CC(=O)N[C@H]1[C@H](O[C@H]2[C@@H](O)[C@@H](CO)O[C@@H](O[C@H]3[C@H](O)[C@@H](O)C(O)O[C@@H]3CO)[C@@H]2O)O[C@H](CO)[C@@H](O[C@@H]2O[C@H](CO)[C@H](O)[C@H](O)[C@H]2O)[C@@H]1O` (stereo partly shown) [Substance 5, Neolactotetraose], for which, in assay [1] (Streptococcus pneumoniae), the activity at 100 µg/mL is 52%, the activity at 1000 µg/mL was determined as 28%, the activity at 5000 µg/mL was 0% and the activity at 10000 µg/mL was determined as 1%. In assay [1] (Streptococcus pneumoniae), the IC50 was approximately 400 µg/mL (≈ 565 µM).

`CC(=O)N[C@H]1[C@H](O[C@H]2[C@@H](O)[C@@H](CO)O[C@@H](O[C@H]3[C@H](O)[C@@H](O)C(O)O[C@@H]3CO)[C@@H]2O)O[C@H](CO)[C@@H](O)[C@@H]1O[C@@H]1O[C@H](CO)[C@H](O)[C@H](O)[C@H]1O` (stereo partly shown) [Substance 6, Lactotetraose]: in assay [1] (Streptococcus pneumoniae), the activity at 100 µg/mL is 68%, the activity at 1000 µg/mL was determined as 25%, the activity at 5000 µg/mL stood at 4% and the IC50 was approximately 400 µg/mL (≈ 565 µM).

For `CO[C@H]1O[C@H](CO)[C@@H](O[C@@H]2O[C@H](CO)[C@H](O)[C@H](O)[C@H]2O)[C@H](O)[C@H]1NC(C)=O` [Substance 8, Methyl 2-acetamido-2-deoxy-4-O-(β-D-galactopyranosvl)-α--D-glycopyranoside], in assay [1] (Streptococcus pneumoniae), the activity at 1000 µg/mL turned out to be 96%, the activity at 5000 µg/mL was determined as 98% and the activity at 10000 µg/mL stood at 129%. Also, the “inhibition of adherence (result in words)” value in assay [1] was “inactive”.

Regarding `CO[C@@H]1O[C@H](CO)[C@@H](O[C@@H]2O[C@H](CO)[C@H](O)[C@H](O)[C@H]2O)[C@H](O)[C@H]1NC(C)=O` [Substance 9, Methyl 2-acetamido-2-deoxy-4-O-(β-D-galactopyranosyl)-β--D-glycopyranoside], in assay [1] (Streptococcus pneumoniae), the activity at 1000 µg/mL was found to be 96%, the activity at 5000 µg/mL amounted to 45% and the activity at 10000 µg/mL amounted to 29%. For the same compound, the minimal effective concentration in assay [1] (Streptococcus pneumoniae, read-out: concentration at which adherence was inhibited) was approximately 5000 µg/mL.

For `CC(=O)N[C@H]1C(O)O[C@H](CO)[C@@H](O[C@@H]2O[C@H](CO)[C@H](O)[C@H](O)[C@H]2O)[C@@H]1O` (stereo partly shown) [Substance 10, N-acetyllactose amine, reference compound], in assay [1] (Streptococcus pneumoniae), the activity at 1000 µg/mL was determined as 95%, the activity at 5000 µg/mL was determined as 144% and the activity at 10000 µg/mL came to 127%. The “inhibition of adherence (result in words)” value in assay [1] is “inactive”.

With `CO[C@@H]1O[C@H](CO)[C@H](O[C@@H]2O[C@H](CO)[C@@H](O)[C@H](O)[C@H]2NC(C)=O)[C@H](O)[C@H]1O` [Substance 11, Methyl 4-0-(2-acetamido-2-deoxy-β-D-glycopyranosyl)-β-D--galactopyranoside], in assay [1] (Streptococcus pneumoniae), the activity at 100 µg/mL came out at 65%, the activity at 1000 µg/mL was 72%, the activity at 5000 µg/mL turned out to be 73% and the activity at 10000 µg/mL worked out at 75%. Further, in assay [1], the “inhibition of adherence (result in words)” value was “inactive”.

In the case of `CO[C@@H]1O[C@H](CO)[C@H](O)[C@H](O[C@@H]2O[C@H](CO)[C@@H](O)[C@H](O)[C@H]2NC(C)=O)[C@H]1O` [Substance 12, Methyl 3-0-(2-acetamido-2-deoxy-β-D-glycopyranosyl)-β-D--galactopyranoside], in assay [1] (Streptococcus pneumoniae), the activity at 100 µg/mL is 66%, the activity at 1000 µg/mL turned out to be 105%, the activity at 5000 µg/mL was determined as 15% and the activity at 10000 µg/mL is 4%.

As for `CCO[C@@H]1O[C@H](CO)[C@@H](O[C@@H]2O[C@H](CO)[C@H](O)[C@H](O)[C@H]2O)[C@H](O)[C@H]1NC(C)=O` [Substance 13, Galβ1→4GlcNAcβ1-O-Et], in assay [1] (Streptococcus pneumoniae), the activity at 1000 µg/mL is 67%, the activity at 5000 µg/mL was 38% and the activity at 10000 µg/mL was found to be 31%.

Regarding `CCO[C@@H]1O[C@H](CO)[C@@H](O[C@@H]2O[C@H](CO)[C@H](O)[C@H](O)[C@H]2O)[C@H](O)[C@H]1O` [Substance 14, Ethyl 4-0-β-D-galactopyranosyl-β-D-glycopyranoside], in assay [1] (Streptococcus pneumoniae), the activity at 1000 µg/mL turned out to be 85%, the activity at 5000 µg/mL is 78% and the activity at 10000 µg/mL is 63%.

Regarding `CO[C@@H]1O[C@H](CO)[C@H](O)[C@H](O[C@@H]2O[C@H](CO)[C@@H](O[C@@H]3O[C@H](CO)[C@H](O)[C@H](O)[C@H]3O)[C@H](O)[C@H]2NC(C)=O)[C@H]1O` [Substance 15, Methyl 3-0-2-acetamido-2-deoxy-4-0-(β-D-galactopyranosyl)--β-D-glycopyranosyl-β-D-galactopyranoside], in assay [1] (Streptococcus pneumoniae), the activity at 100 µg/mL was determined as 60%, the activity at 1000 µg/mL came to 45%, the activity at 5000 µg/mL is 11% and the activity at 10000 µg/mL came to 2%.

With `CO[C@@H]1O[C@H](CO)[C@@H](O[C@@H]2O[C@H](CO)[C@H](O)[C@H](O[C@@H]3O[C@H](CO)[C@@H](O[C@@H]4O[C@H](CO)[C@H](O)[C@H](O)[C@H]4O)[C@H](O)[C@H]3NC(C)=O)[C@H]2O)[C@H](O)[C@H]1O` [Substance 16, Methyl 4-0-{3-0-[2-acetamido-2-deoxy-4-0-(D-galactopy-ranasyl)-β-D-glucopyranosyl]-β-D-galactopyranosyl}-β-D-glucopyranoside], in assay [1] (Streptococcus pneumoniae), the activity at 100 µg/mL came out at 104%, the activity at 1000 µg/mL was found to be 11%, the activity at 5000 µg/mL was 1% and the activity at 10000 µg/mL came to 4%.

In the case of Galβ1 → 3 GlcNAc-β1-O-Bz [Substance 17], the “Adherence % of control Average” value is given as 88 % of control in assay [1] (Conc. 0.1 mg/ml), 86 % of control in assay [1] (Conc. 1 mg/ml), 51 % of control in assay [1] (Conc. 5 mg/ml) and 8 % of control in assay [1] (Conc. 10 mg/ml).

For the compound “N-acetylneuraminosyl neolactotetraosyl ceramide [Substance 3, reference compound]”, in assay [1], the “Inhibition of adherence % of control Average” value was 100 % of control and the “inhibition of adherence (result in words)” value is “no effect”. Besides, in assay [2], the “Increase of adherence % of control Average” value is recorded as 94 % of control and the “effect of coating of pharyngeal epithelium cells on adherence (result in words)” value (“effect of coating … (result in words)” below) is “no effect”.

On to globotetraosylceramide, for which the “effect of coating … (result in words)” value in assay [2] is recorded as “no effect”.

Turning to “globotetraosylceramide [Substance 4, reference compound]”, in assay [2], the “Increase of adherence % of control Average” value is recorded as 100 % of control.

Consider “neolactotetraosyl ceramide [Substance 2]”, for which the “Inhibition of adherence % of control Average” value in assay [1] is listed as 59 % of control. For the same compound, the “adherence, % of the saline as a control” value in assay [1] (pretreatment of the pneumococci, at 200 µg/ml, 15 min) turned out to be 59%. Moreover, in assay [2], the “Increase of adherence % of control Average” value is recorded as 190 % of control and the “effect of coating … (result in words)” value is given as “increased adherence”.
